Reference: patent US7875618B2, “Substituted imidazo[1,5-a]quinoxalines useful as inhibitors of phosphodiesterase 10 for the treatment of neurological and other disorders” (Wyeth, priority 2007, dated 2011)

How the values were obtained:
PDE10 from pig striatum = PDE10 from pig striatum (Sus scrofa, UniProt A0A287B941); experiment: Inhibition of PDE10 from pig striatum ([3H]-cAMP SPA, Methods A and B); assay type: biochemical; details: PDE10 pig
Description: Striatum from male Wistar rats (180-200 g), male hybrid pigs (150 kg) and male guinea pigs (CRL (HA), 500 g) respectively were collected and frozen at −70° C. At the day of preparation 0.5 g striatum was homogenised in 10 ml 50 mM Tris/Mg-buffer at 4° C. and centrifuged for one hour at 100000 g. The supernatant is called the cytosolic fraction and was removed and stored on ice. The pellet was resuspended in the same buffer, but containing 1% Triton and incubated for 45 min at 4° C. Both fractions were independently applied onto a 5 ml Hi Trap™ QHP column at the Äkta-FPLC. After washing the columns the bound PDE protein was eluted with an increasing sodium chloride gradient (0 mM-500 mM sodium chloride) in 50 mM Tris/Mg-buffer at 4° C. for the cytosolic fraction and in the presence of 1% Triton for the membrane fraction. […] The fractions with PDE10-activity were pooled and frozen in aliquots until use at −20° C. PDE10 activity was determined in a one step procedure in microtiter plates. […] Nonspecific activity was tested without the enzyme. The reaction was initiated by addition of the substrate solution and was carried out at 37° C. for 30 minutes. Enzymatic activity was stopped by addition of 25 μl YSi-SPA-beads (Amersham-Pharmacia). One hour later the mixture was measured in a liquid scintillation counter for microtiter plates (Microbeta Trilux). To pipette the incubation mixture a robot Biomek (Fa. Beckman) is used. […] For determination of IC50 values the Hill-plot, 2-parameter-model, was used. […] Striatum from male hybrid pigs (150 kg) were collected and frozen at −70° C. At the day of preparation 0.5 g striatum was homogenised in 10 ml 50 mM Tris/Mg-buffer at 4° C. and centrifuged for one hour at 100000 g. The supernatant was removed and the pellet was resuspended in the same buffer, but containing 1% Triton and incubated for 45 min at 4° C. The membrane fraction was applied onto a 5 ml Hi Trap™ QHP column at the Äkta-FPLC. After washing the column the bound PDE protein was eluted with an increasing sodium chloride gradient (0 mM-500 mM sodium chloride) in 50 mM Tris/Mg-buffer at 4° C. in the presence of 1% Triton. […] The fractions with PDE10-activity were pooled and frozen in aliquots until use at −20° C. PDE10 activity was determined in a one step procedure in microtiterplates. […] Nonspecific activity was tested without the enzyme. The reaction was initiated by addition of the substrate solution and was carried out at 37° C. for 30 minutes. Enzymatic activity was stopped by addition of 25 μl YSi-SPA-beads (Amersham-Pharmacia). One hour later the mixture was measured in a liquid scintillation counter for microtiterplates (Microbeta Trilux). To pipette the incubation mixture a robot Biomek (Fa. Beckman) is used. […] For determination of IC50 values the Hill-plot, 2-parameter-model, was used.

human recombinant PDE10A = biological target: T1, human recombinant PDE10A (Homo sapiens, UniProt Q9Y233); experiment: Inhibition of human recombinant PDE10A ([3H]-cAMP SPA, Method B); assay type: biochemical; details: read-out: PDE10 inhibition IC50 [nM] PDE10A human
T1 construct: made in house; host or cells: SF21 insect cells (baculovirus)
T1 sequence (Q9Y233 1-779 isoform Q9Y233-1): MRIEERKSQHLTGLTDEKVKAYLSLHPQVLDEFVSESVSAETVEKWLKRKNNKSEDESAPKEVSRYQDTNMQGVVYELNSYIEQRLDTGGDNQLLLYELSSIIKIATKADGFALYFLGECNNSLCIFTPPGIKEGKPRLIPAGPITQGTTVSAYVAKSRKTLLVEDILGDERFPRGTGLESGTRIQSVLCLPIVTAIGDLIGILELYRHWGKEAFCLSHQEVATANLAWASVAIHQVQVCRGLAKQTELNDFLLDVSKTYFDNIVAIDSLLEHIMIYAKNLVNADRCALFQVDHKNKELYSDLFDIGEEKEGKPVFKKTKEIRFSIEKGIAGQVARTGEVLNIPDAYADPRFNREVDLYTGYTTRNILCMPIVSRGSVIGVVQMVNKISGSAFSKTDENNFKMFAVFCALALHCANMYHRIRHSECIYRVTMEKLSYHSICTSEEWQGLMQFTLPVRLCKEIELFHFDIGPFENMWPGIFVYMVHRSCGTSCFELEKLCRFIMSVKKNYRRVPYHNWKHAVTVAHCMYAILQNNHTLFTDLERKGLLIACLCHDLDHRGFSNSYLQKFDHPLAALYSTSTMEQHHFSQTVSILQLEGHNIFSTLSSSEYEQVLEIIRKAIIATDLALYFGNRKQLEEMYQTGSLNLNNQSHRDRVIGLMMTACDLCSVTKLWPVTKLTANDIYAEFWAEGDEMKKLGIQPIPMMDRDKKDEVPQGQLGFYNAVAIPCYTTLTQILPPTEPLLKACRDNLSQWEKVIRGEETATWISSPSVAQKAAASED

IC50 (PDE10 from pig striatum) [nM]	melting point [°C]	IC50 (human recombinant PDE10A) [nM]	Structure (SMILES)
–	99 to 101	10 to 100	CCCc1nc(C)c2c(C)nc3ccc(OC)cc3n12 [Example 16, 3,4-Dimethyl-8-methoxy-1-propyl-imidazo(1,5-a)quinoxaline]
10 to 100	132 to 134	–	CCc1nc(C)c2c(C)nc3ccc(N4CCCCC4)cc3n12 [Example 17, 3,4-Dimethyl-1-ethyl-8-(piperidin-1-yl)-imidazo(1,5-a)quinoxaline]
–	211 to 212	10 to 100	COc1ccc2nc(N)c3c(C)nc(C4CCCCC4)n3c2c1 [Example 38, 1-Cyclohexyl-8-methoxy-3-methyl-imidazo[1,5-a]quinoxalin-4-ylamine]
–	163 to 167	10 to 100	CCCc1nc(C)c2c(N)nc3ccc(OCC4CC4)cc3n12 [Example 39, 8-Cyclopropylmethoxy-3-methyl-1-propyl-imidazo[1,5-a]quinoxalin-4-ylamine]
–	165 to 169	10 to 100	COc1ccc2nc(C)c3c(C)nc(C4CCCCC4)n3c2c1 [Example 43, 1-Cyclohexyl-8-methoxy-3,4-dimethyl-imidazo[1,5-a]quinoxaline]
–	200 to 206	≥ 100	CCCc1nc(C)c2c(C)nc3c(OCC(F)(F)F)cc(OCC(F)(F)F)cc3n12 [Example 46, 3,4-Dimethyl-1-propyl-6,8-bis-(2,2,2-trifluoro-ethoxy)-imidazo[1,5-a]quinoxaline]
–	111 to 117	10 to 100	CCCc1nc(C)c2c(C)nc3cc(OC)ccc3n12 [Example 48, 7-Methoxy-3,4-dimethyl-1-propyl-imidazo[1,5-a]quinoxaline]
10 to 100	125 to 128	–	CCc1nc(C)c2c(Cl)nc3ccccc3n12 [Intermediate B3]
10 to 100	99 to 101	–	CCCc1nc(C)c2c(Cl)nc3ccccc3n12 [Intermediate B4, 4-Chloro-3-methyl-1-propyl-imidazo(1,5-a)quinoxaline]
10 to 100	157 to 160	–	CCc1nc(C)c2c(Cl)nc3ccc(F)cc3n12 [Intermediate B5]

Continued, compound first:

Structure (SMILES)	IC50 (PDE10 from pig striatum) [nM]	melting point [°C]	IC50 (human recombinant PDE10A) [nM]
CCc1nc(C)c2c(N)nc3ccccc3n12 [Example 3, 1-Ethyl-3-methyl-imidazo(1,5-a)quinoxalin-4-ylamine]	≥ 100	192 to 195	–
CCCc1nc(C)c2c(N)nc3ccccc3n12 [Example 4, 3-Methyl-1-propyl-imidazo(1,5-a)quinoxalin-4-ylamine]	≥ 100	187 to 188	–
CCc1nc(C)c2c(N)nc3ccc(F)cc3n12 [Example 5, 1-Ethyl-8-fluoro-3-methyl-imidazo(1,5-a)quinoxalin-4-ylamine]	≥ 100	238 to 239	–
CCCc1nc(C)c2c(N)nc3ccc(F)cc3n12 [Example 6, 8-Fluoro-3-methyl-1-propyl-imidazo(1,5-a)quinoxalin-4-ylamine]	10 to 100	240 to 243	–
Cc1nc(C2CCCCC2)n2c1c(C)nc1ccc(Cl)cc12 [Example 10, 8-Chloro-1-cyclohexyl-3,4-dimethyl-imidazo(1,5-a)quinoxaline]	10 to 100	228 to 234	–
CCc1nc(C)c2c(C)nc3ccccc3n12 [Example 11, 3,4-Dimethyl-1-ethyl-imidazo(1,5-a)quinoxaline]	≥ 100	123 to 125	–
CCc1nc(C)c2c(C)nc3ccc(F)cc3n12 [Example 12, 3,4-Dimethyl-1-ethyl-8-fluoro-imidazo(1,5-a)quinoxaline]	≥ 100	139 to 142	–
CCCc1nc(C)c2c(C)nc3ccc(F)cc3n12 [Example 13, 3,4-Dimethyl-8-fluoro-1-propyl-imidazo(1,5-a)quinoxaline]	10 to 100	140 to 144	–
Cc1nc(C2CCCCC2)n2c1c(C)nc1ccc(F)cc12 [Example 14, 1-Cyclohexyl-3,4-dimethyl-8-fluoro-imidazo(1,5-a)quinoxaline]	10 to 100	195 to 200	–
